ChEMBL document CHEMBL4011590, “Structure-activity relationship studies on 3,5-dinitrophenyl tetrazoles as antitubercular agents” (Eur J Med Chem, 2017)
Converted amounts (≈) assume the structure as drawn.

Legend:
Klebsiella pneumoniae [1] = assay: Antibacterial activity against extended spectrum beta-lactamase producing Klebsiella pneumoniae HK14368/08 after 48 hrs by broth microdilution method; assay type: functional; details: HK14368/08, 48 h
Mycobacterium kansasii [2] = assay: Antimycobacterial activity against Mycobacterium kansasii CNCTC My 235/80 after 14 days by micromethod; assay type: functional; details: CNCTC My 235/80, 336 h
Candida albicans [3] = assay: Antifungal activity against Candida albicans ATCC 44859 after 24 hrs by broth microdilution method; assay type: functional; details: ATCC 44859, 24 h
Candida albicans [4] = assay: Antifungal activity against Candida albicans ATCC 44859 after 48 hrs by broth microdilution method; assay type: functional; details: ATCC 44859, 48 h
Escherichia coli [5] = assay: Antibacterial activity against Escherichia coli ATCC 8739 after 24 hrs by broth microdilution method; assay type: functional; details: ATCC 8739, 24 h
Mycobacterium kansasii [6] = assay: Antimycobacterial activity against Mycobacterium kansasii isolate 6509/96 after 7 days by micromethod; assay type: functional; details: isolate 6509/96, 168 h
[7] = system: Staphylococcus epidermidis; assay: Antibacterial activity against Staphylococcus epidermidis HK6966/08 after 24 hrs by broth microdilution method; assay type: functional; details: HK6966/08, 24 h
[8] = system: Trichophyton mentagrophytes; assay: Antifungal activity against Trichophyton mentagrophytes 445 after 120 hrs by broth microdilution method; assay type: functional; details: Trichophyton mentagrophytes, 445, 120 h
Klebsiella pneumoniae [9] = assay: Antibacterial activity against Klebsiella pneumoniae HK11750/08 after 24 hrs by broth microdilution method; assay type: functional; details: HK11750/08, 24 h
Klebsiella pneumoniae [10] = assay: Antibacterial activity against Klebsiella pneumoniae HK11750/08 after 48 hrs by broth microdilution method; assay type: functional; details: HK11750/08, 48 h
Mycobacterium kansasii [11] = assay: Antimycobacterial activity against Mycobacterium kansasii isolate 6509/96 after 14 days by micromethod; assay type: functional; details: isolate 6509/96, 336 h
CHO-K1 = assay: Cytotoxicity against CHOK1 cells after 24 hrs by MTT assay; assay type: cell-based; details: Cricetulus griseus, CHO-K1, 24 h
[12] = system: Mycobacterium tuberculosis; assay: Antimycobacterial activity against Mycobacterium tuberculosis H37Rv CNCTC My 331/88 after 14 days by micromethod; assay type: functional; details: H37Rv CNCTC My 331/88, 336 h
Pichia kudriavzevii [13] = assay: Antifungal activity against Candida krusei E28 after 24 hrs by broth microdilution method; assay type: functional; details: E28, 24 h
Pseudomonas aeruginosa [14] = assay: Antibacterial activity against Pseudomonas aeruginosa ATCC 9027 after 24 hrs by broth microdilution method; assay type: functional; details: ATCC 9027, 24 h
Aspergillus fumigatus [15] = assay: Antifungal activity against Aspergillus fumigatus 231 after 48 hrs by broth microdilution method; assay type: functional; details: Aspergillus fumigatus, 231, 48 h
Mycobacterium avium [16] = assay: Antimycobacterial activity against Mycobacterium avium CNCTC My 330/80 after 21 days by micromethod; assay type: functional; details: CNCTC My 330/80, 504 h
Nakaseomyces glabratus [17] = assay: Antifungal activity against Candida glabrata 20/I after 48 hrs by broth microdilution method; assay type: functional
Klebsiella pneumoniae [18] = assay: Antibacterial activity against extended spectrum beta-lactamase producing Klebsiella pneumoniae HK14368/08 after 24 hrs by broth microdilution method; assay type: functional; details: HK14368/08, 24 h
Enterococcus sp. [19] = assay: Antibacterial activity against Enterococcus sp. HK14365/08 after 48 hrs by broth microdilution method; assay type: functional; details: HK14365/08, 48 h
Staphylococcus aureus [20] = assay: Antibacterial activity against Staphylococcus aureus ATCC 6538 after 24 hrs by broth microdilution method; assay type: functional; details: ATCC 6538, 24 h
Escherichia coli [21] = assay: Antibacterial activity against Escherichia coli ATCC 8739 after 48 hrs by broth microdilution method; assay type: functional; details: ATCC 8739, 48 h
Mycobacterium avium [22] = assay: Antimycobacterial activity against Mycobacterium avium CNCTC My 330/80 after 14 days by micromethod; assay type: functional; details: CNCTC My 330/80, 336 h
Aspergillus fumigatus [23] = assay: Antifungal activity against Aspergillus fumigatus 231 after 24 hrs by broth microdilution method; assay type: functional; details: Aspergillus fumigatus, 231, 24 h
Pseudomonas aeruginosa [24] = assay: Antibacterial activity against Pseudomonas aeruginosa ATCC 9027 after 48 hrs by broth microdilution method; assay type: functional; details: ATCC 9027, 48 h
[25] = system: Trichophyton mentagrophytes; assay: Antifungal activity against Trichophyton mentagrophytes 445 after 72 hrs by broth microdilution method; assay type: functional; details: Trichophyton mentagrophytes, 445, 72 h
Trichosporon asahii [26] = assay: Antifungal activity against Trichosporon asahii 1188 after 48 hrs by broth microdilution method; assay type: functional; details: Trichosporon asahii, 1188, 48 h
[27] = system: Mycobacterium tuberculosis; assay: Antimycobacterial activity against Mycobacterium tuberculosis H37Rv CNCTC My 331/88 after 21 days by micromethod; assay type: functional; details: H37Rv CNCTC My 331/88, 504 h
Enterococcus sp. [28] = assay: Antibacterial activity against Enterococcus sp. HK14365/08 after 24 hrs by broth microdilution method; assay type: functional; details: HK14365/08, 24 h
Staphylococcus aureus [29] = assay: Antibacterial activity against methicillin-resistant Staphylococcus aureus HK5996/08 after 48 hrs by broth microdilution method; assay type: functional; details: HK5996/08, 48 h
Lichtheimia corymbifera [30] = assay: Antifungal activity against Absidia corymbifera 272 after 24 hrs by broth microdilution method; assay type: functional; details: Lichtheimia corymbifera, 272, 24 h
Nakaseomyces glabratus [31] = assay: Antifungal activity against Candida glabrata 20/I after 24 hrs by broth microdilution method; assay type: functional
Candida tropicalis [32] = assay: Antifungal activity against Candida tropicalis 156 after 24 hrs by broth microdilution method; assay type: functional; details: Candida tropicalis, 156, 24 h
Trichosporon asahii [33] = assay: Antifungal activity against Trichosporon asahii 1188 after 24 hrs by broth microdilution method; assay type: functional; details: Trichosporon asahii, 1188, 24 h
[34] = system: Staphylococcus epidermidis; assay: Antibacterial activity against Staphylococcus epidermidis HK6966/08 after 48 hrs by broth microdilution method; assay type: functional; details: HK6966/08, 48 h
Staphylococcus aureus [35] = assay: Antibacterial activity against methicillin-resistant Staphylococcus aureus HK5996/08 after 24 hrs by broth microdilution method; assay type: functional; details: HK5996/08, 24 h
Mycobacterium kansasii [36] = assay: Antimycobacterial activity against Mycobacterium kansasii CNCTC My 235/80 after 21 days by micromethod; assay type: functional; details: CNCTC My 235/80, 504 h
Lichtheimia corymbifera [37] = assay: Antifungal activity against Absidia corymbifera 272 after 48 hrs by broth microdilution method; assay type: functional; details: Lichtheimia corymbifera, 272, 48 h
Candida tropicalis [38] = assay: Antifungal activity against Candida tropicalis 156 after 48 hrs by broth microdilution method; assay type: functional; details: Candida tropicalis, 156, 48 h
Mycobacterium kansasii [39] = assay: Antimycobacterial activity against Mycobacterium kansasii isolate 6509/96 after 21 days by micromethod; assay type: functional; details: isolate 6509/96, 504 h
Mycobacterium kansasii [40] = assay: Antimycobacterial activity against Mycobacterium kansasii CNCTC My 235/80 after 7 days by micromethod; assay type: functional; details: CNCTC My 235/80, 168 h
Staphylococcus aureus [41] = assay: Antibacterial activity against Staphylococcus aureus ATCC 6538 after 48 hrs by broth microdilution method; assay type: functional; details: ATCC 6538, 48 h
Pichia kudriavzevii [42] = assay: Antifungal activity against Candida krusei E28 after 48 hrs by broth microdilution method; assay type: functional; details: E28, 48 h

SMILES: O=[N+]([O-])c1cc(-c2nnnn2Cc2ccccc2)cc([N+](=O)[O-])c1
- MIC (Klebsiella pneumoniae [1]): 125 µM (≈ 40.8 µg/mL)
- MIC99 (Mycobacterium kansasii [2]): 8 µM (≈ 2.61 µg/mL)
- MIC (Candida albicans [3]): 62.5 µM (≈ 20.4 µg/mL)
- MIC (Candida albicans [4]): 62.5 µM (≈ 20.4 µg/mL)
- MIC (Escherichia coli [5]): 125 µM (≈ 40.8 µg/mL)
- MIC99 (Mycobacterium kansasii [6]): 2 µM (≈ 0.653 µg/mL)
- MIC [7]: 62.5 µM (≈ 20.4 µg/mL)
- MIC [8]: 500 µM (≈ 163 µg/mL)
- MIC (Klebsiella pneumoniae [9]): 250 µM (≈ 81.6 µg/mL)
- MIC (Klebsiella pneumoniae [10]): 125 µM (≈ 40.8 µg/mL)
- MIC99 (Mycobacterium kansasii [11]): 4 µM (≈ 1.31 µg/mL)
- IC50 (CHO-K1): 18 µM
- MIC99 [12]: 2 µM (≈ 0.653 µg/mL)
- MIC (Pichia kudriavzevii [13]): 250 µM (≈ 81.6 µg/mL)
- MIC (Pseudomonas aeruginosa [14]): 500 µM (≈ 163 µg/mL)
- MIC (Aspergillus fumigatus [15]): > 500 µM
- MIC99 (Mycobacterium avium [16]): 32 µM (≈ 10.4 µg/mL)
- MIC (Nakaseomyces glabratus [17]): 250 µM (≈ 81.6 µg/mL)
- MIC (Klebsiella pneumoniae [18]): 250 µM (≈ 81.6 µg/mL)
- MIC (Enterococcus sp. [19]): 62.5 µM (≈ 20.4 µg/mL)
- MIC (Staphylococcus aureus [20]): 62.5 µM (≈ 20.4 µg/mL)
- MIC (Escherichia coli [21]): 62.5 µM (≈ 20.4 µg/mL)
- MIC99 (Mycobacterium avium [22]): 16 µM (≈ 5.22 µg/mL)
- MIC (Aspergillus fumigatus [23]): > 500 µM
- MIC (Pseudomonas aeruginosa [24]): 500 µM (≈ 163 µg/mL)
- MIC [25]: 500 µM (≈ 163 µg/mL)
- MIC (Trichosporon asahii [26]): 250 µM (≈ 81.6 µg/mL)
- MIC99 [27]: 2 µM (≈ 0.653 µg/mL)
- MIC (Enterococcus sp. [28]): 62.5 µM (≈ 20.4 µg/mL)
- MIC (Staphylococcus aureus [29]): 15.6 µM (≈ 5.1 µg/mL)
- MIC (Lichtheimia corymbifera [30]): 500 µM (≈ 163 µg/mL)
- MIC (Nakaseomyces glabratus [31]): 250 µM (≈ 81.6 µg/mL)
- MIC (Candida tropicalis [32]): 250 µM (≈ 81.6 µg/mL)
- MIC (Trichosporon asahii [33]): 250 µM (≈ 81.6 µg/mL)
- MIC [34]: 62.5 µM (≈ 20.4 µg/mL)
- MIC (Staphylococcus aureus [35]): 31.2 µM (≈ 10.2 µg/mL)
- MIC99 (Mycobacterium kansasii [36]): 8 µM (≈ 2.61 µg/mL)
- MIC (Lichtheimia corymbifera [37]): 500 µM (≈ 163 µg/mL)
- MIC (Candida tropicalis [38]): 250 µM (≈ 81.6 µg/mL)
- MIC99 (Mycobacterium kansasii [39]): 4 µM (≈ 1.31 µg/mL)
- MIC99 (Mycobacterium kansasii [40]): 8 µM (≈ 2.61 µg/mL)
- MIC (Staphylococcus aureus [41]): 62.5 µM (≈ 20.4 µg/mL)
- MIC (Pichia kudriavzevii [42]): 250 µM (≈ 81.6 µg/mL)
